# Molecular target: T1, SPI1085g2 (Spirulina subsalsa, UniProt A0ABT3L563)
# T1 construct: gene K4A83_08105; second GAF domain (GAF2) only, residues 216-369 of SPI1085; N-terminal polyhistidine tag kept (pETDuet); expressed in E. coli BL21(DE3) with ho1::pcyA or ho1::pebS
# T1 sequence (A0ABT3L563 216-369): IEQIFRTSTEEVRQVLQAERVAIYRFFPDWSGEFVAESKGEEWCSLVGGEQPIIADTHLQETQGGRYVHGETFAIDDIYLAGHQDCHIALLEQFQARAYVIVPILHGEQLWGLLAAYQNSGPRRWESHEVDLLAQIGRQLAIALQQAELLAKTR
# Experiment: zinc-induced fluorescence on SDS-PAGE; absorbance and acid-urea denaturation
# Type: binding
# Details: covalent, KPB pH […]
smiles,measurement,setting,value
"C/C=C1/C(=C/c2[nH]c(/C=C3N=C(/C=C4\NC(=O)C(CC)=C4C)C(C)=C\3CCC(=O)O)c(CCC(=O)O)c2C)NC(=O)[C@@H]1C [PCB, phycocyanobilin]",zinc-induced fluorescence on SDS-PAGE; absorbance and acid-urea denaturation,chromophore assembled in E. coli co-expressing ho1 and pcyA,"SPI1085g2 can covalently bind PCB, as demonstrated by the zinc-dependent fluorescence observed by SDS-PAGE"
"C=CC1=C(C)[C@@H](Cc2[nH]c(/C=C3N=C(/C=C4\NC(=O)[C@H](C)\C4=C/C)C(C)=C\3CCC(=O)O)c(CCC(=O)O)c2C)NC1=O [PEB, phycoerythrobilin]",zinc-induced fluorescence on SDS-PAGE; absorbance and acid-urea denaturation,chromophore assembled in E. coli co-expressing ho1 and pebS,resulted in highly efficient binding of PEB to SPI1085g2

# — publication PMC9705869, “Chromophorylation of a Novel Cyanobacteriochrome GAF Domain from Spirulina and Its Response to Copper Ions” (Journal of Microbiology and Biotechnology, 2020)
